Where a name gives a salt, the structure may show the parent alone. Read-outs that look alike come from different tables or passages of the source.

Six compounds from patent US10315999B2, “Processes for the preparation of pesticidal compounds” (Dow AgroSciences LLC, priority 2013, dated 2019) can be followed below.

Experiment [1] relates to Green Peach Aphid (Myzus persicae) (MYZUPE). Nature of the experiment: Bioassay on Green Peach Aphid (GPA), cabbage seedling foliar spray. Format: in vivo. Particulars: 72 h, read-out: MYZUPE rating (% Control of Mortality, Abbott corrected). The protocol: Several molecules disclosed herein were tested against GPA using procedures described below.
Cabbage seedling grown in 3-in pots, with 2-3 small (3-5 cm) true leaves, were used as test substrate. The seedlings were infested with […] (wingless adult and nymph stages) one day prior to chemical application. Four pots with individual seedlings were used for each treatment. Test compounds (2 mg) were dissolved in 2 mL of acetone/MeOH (1:1) solvent, forming stock solutions of 1000 ppm test compound. The stock solutions were diluted 5× with 0.025% Tween 20 in water to obtain the solution at 200 ppm test compound. A hand-held aspirator-type sprayer was used for spraying a solution to both sides of the cabbage leaves until runoff. Reference plants (solvent check) were sprayed with the diluent only containing 20% by volume acetone/MeOH (1:1) solvent. Treated plants were held in a holding room for three days at approximately 25° C. and ambient relative humidity (RH) prior to grading. Evaluation was conducted by counting the number of live aphids per plant under a microscope. Percent Control was measured by using Abbott's correction formula (W. S. Abbott, “A Method of Computing the Effectiveness of an Insecticide” J. Econ. Entomol 18 (1925), pp. 265-267) as follows. Corrected % Control=100*(X−Y)/X • where • X=No. of live aphids on solvent check plants and • Y=No. of live aphids on treated plants
The results are indicated in the table entitled “Table 1: GPA (MYZUPE) and sweetpotato whitefly-crawler (BEMITA) Rating Table”.

Experiment [2] deals with Sweetpotato Whitefly Crawler (Bemisia tabaci) (BEMITA). Briefly: Bioassay on Sweetpotato Whitefly Crawler, cotton plant foliar spray. Format: in vivo. Particulars: read-out: BEMITA rating (% Control of Mortality, Abbott corrected). The protocol:
Cotton plants grown in 3-inch pots, with 1 small (3-5 cm) true leaf, were used at test substrate. The plants were placed in a room with whitely adults. Adults were allowed to deposit eggs for 2-3 days. After a 2-3 day egg-laying period, plants were taken from the adult whitefly room. Adults were blown off leaves using a hand-held Devilbliss sprayer (23 psi). Plants with egg infestation (100-300 eggs per plant) were placed in a holding room for 5-6 days at 82° F. and 50% RH for egg hatch and crawler stage to develop. Four cotton plants were used for each treatment. Compounds (2 mg) were dissolved in 1 mL of acetone solvent, forming stock solutions of 2000 ppm. The stock solutions were diluted 10× with 0.025% Tween 20 in water to obtain a test solution at 200 ppm. A hand-held Devilbliss sprayer was used for spraying a solution to both sides of cotton leaf until runoff. Reference plants (solvent check) were sprayed with the diluent only. Treated plants were held in a holding room for 8-9 days at approximately 82° F. and 50% RH prior to grading. Evaluation was conducted by counting the number of live nymphs per plant under a microscope.

Setting [3] is: 200 ppm spray on cabbage seedlings, live aphids counted after three days.
Where [4] appears, read: 200 ppm spray on cotton plants, live nymphs counted after 8-9 days.

By mortality is commonly meant the percentage killed. Regarding `CCNc1cn(-c2cccnc2)nc1Cl` [Compound 1d, 3-Chloro-N-ethyl-1-(pyridin-3-yl)-1H-pyrazol-amine], the mortality at 200 ppm in experiment [1] (setting [3]) and in experiment [2] (setting [4]) was 0 to 80% each time.
Turning to `CCN(C(=O)CCSCCC(F)(F)F)c1cn(-c2cccnc2)nc1Cl` [Compound 5.1, N-(3-Chloro-1-(pyridin-3-yl)-1H-pyrazol-4-yl)-N-ethyl-3-((3,3,3-trifluoropropyl)thio)propanamide], the mortality at 200 ppm in experiment [1] (setting [3]) and in experiment [2] (setting [4]) was 80 to 100% each time.
With `CC(=O)Nc1cn(-c2cccnc2)nc1Cl` [Compound 1c, N-(3-Chloro-1-(pyridin-3-yl)-1H-pyrazol-4-yl)acetamide], the mortality at 200 ppm in experiment [1] (setting [3]) and in experiment [2] (setting [4]) was 0 to 80% each time.
On to `CC(=O)Nc1c[nH]nc1Cl` [Compound 1b, N-(3-Chloro-1H-pyrazol-4-yl)acetamide], for which the mortality at 200 ppm in experiment [1] (setting [3]) and in experiment [2] (setting [4]) was 0 to 80% each time.
For `CCN(C(=O)CC[S+]([O-])CCC(F)(F)F)c1cn(-c2cccnc2)nc1Cl` (stereo not drawn) [Compound 8.1, N-(3-Chloro-1-(pyridin-3-yl)-1H-pyrazol-4-yl)-N-ethyl-3-((3,3,3-trifluoropropyl)sulfoxo)propanamide], the mortality at 200 ppm in experiment [1] (setting [3]) and in experiment [2] (setting [4]) was 80 to 100% in each case.
`Nc1c[nH]nc1Cl` [Compound 1a, 3-Chloro-1H-pyrazol-4-amine hydrochloride]: the mortality at 200 ppm in experiment [1] and in experiment [2] was 0 to 80% in each case.
